Reference: PubChem BioAssay (NCI)
Several values for one entry are separate records, joined by “and”; a condition that tells them apart may be missing. Identical values can stand only once.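 96-well plates; 48 h exposure; 5 concentrations. Endpoints by linear interpolation between flanking doses. Not reached: highest tested concentration assigned. GI50: concentration for 50% inhibition of growth. The concentration for full growth arrest is given as TGI.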

Columns and labels:
Test in all cases: inhibition of tumour cell growth, NCI panel, 48 h
SW-620 colon = test system: SW-620 colon
ACHN renal = test system: ACHN renal
M14 melanoma = test system: M14 melanoma
HL-60(TB) leukemia = test system: HL-60(TB) leukemia
NCI-H23 lung = test system: NCI-H23 lung
HOP-92 NSCLC = test system: HOP-92 NSCLC
A498 renal = test system: A498 renal
SF-539 CNS = test system: SF-539 CNS
A549 NSCLC = test system: A549 NSCLC
HCC-2998 colon = test system: HCC-2998 colon

Structure (SMILES)	GI50 (SW-620 colon)	TGI (SW-620 colon)	GI50 (ACHN renal)	TGI (ACHN renal)	GI50 (M14 melanoma)	TGI (M14 melanoma)	GI50 (HL-60(TB) leukemia)	TGI (HL-60(TB) leukemia)	GI50 (NCI-H23 lung)	TGI (NCI-H23 lung)	GI50 (HOP-92 NSCLC)	TGI (HOP-92 NSCLC)	GI50 (A498 renal)	TGI (A498 renal)	GI50 (SF-539 CNS)	TGI (SF-539 CNS)	GI50 (A549 NSCLC)	TGI (A549 NSCLC)	GI50 (HCC-2998 colon)	TGI (HCC-2998 colon)
Cc1ccc(Nc2ccnc(Nc3cccc(C(N)=O)c3)n2)cc1O	9.62 µM	> 25 µM	4.32 µM	> 25 µM	5.87 µM	> 25 µM	8.1 µM	> 25 µM	9.44 µM	> 25 µM	0.891 µM	8.25 µM	7.31 µM	> 25 µM	3.46 µM	11.1 µM	8.44 µM	> 25 µM	12.6 µM	> 25 µM
O=c1c2c(=NCCCN3CCCC3)cc3c(=O)n(CCCN4CCCC4)c(=O)c4c(NCCCN5CCCC5)cc(c(O)n1CCCN1CCCC1)c2c4-3	1.72 µM	14.5 µM	2.55 µM	26.4 µM	6.86 µM	20.3 µM	11.2 µM	73.5 µM	5.43 µM	24.1 µM	2.15 µM	18.8 µM	2.13 µM	4.98 µM	2.42 µM	8.98 µM	1.45 µM	3.84 µM	6.84 µM	23.1 µM
CC(Cl)CC(=O)Nc1ccc2c(c1)oc(=O)c1cc(NC(=O)CC(C)Cl)ccc12 (stereo not given)	33.3 µM	> 100 µM	12.2 µM	31.8 µM	12.4 µM	37.5 µM	9.03 µM	29.3 µM	50 µM	> 100 µM	2.09 µM	10.7 µM	16.1 µM	38 µM	14.4 µM	33.1 µM	8 µM	22.2 µM	34.9 µM	> 100 µM
COc1cc(SC)ccc1C(=O)N1CCCC(C)C1 (stereo not given)	> 100 µM	> 100 µM	> 100 µM	> 100 µM	> 100 µM	> 100 µM	75.2 µM	> 100 µM	70 µM	> 100 µM	95.7 µM	> 100 µM	34.4 µM	> 100 µM	> 100 µM	> 100 µM	> 100 µM	> 100 µM	> 100 µM	> 100 µM
O=C(O)CNS(=O)(=O)c1ccc(NC(=O)c2cccc([N+](=O)[O-])c2)cc1		> 100 µM		> 100 µM		> 100 µM		> 100 µM		> 100 µM		> 100 µM		> 100 µM		> 100 µM		> 100 µM		> 100 µM
CCCC/C(C)=N/NC(N)=S		> 100 µM		> 100 µM		> 100 µM		> 100 µM		> 100 µM		> 100 µM		> 100 µM		> 100 µM		> 100 µM		> 100 µM
COc1ccccc1OCC(O)CO (stereo not given)	> 100 µM	> 100 µM	> 100 µM	> 100 µM	> 100 µM	> 100 µM	> 100 µM	> 100 µM	> 100 µM	> 100 µM	> 100 µM	> 100 µM	> 100 µM	> 100 µM	> 100 µM	> 100 µM	> 100 µM	> 100 µM	> 100 µM	> 100 µM
Fc1ccc(-c2c(-c3ccncc3)n(CCN3CCOCC3)c3cccnc23)cc1	> 25 µM	> 25 µM	> 25 µM	> 25 µM	> 25 µM	> 25 µM	> 25 µM	> 25 µM	> 25 µM	> 25 µM	2.2 µM	> 25 µM	> 25 µM	> 25 µM	> 25 µM	> 25 µM	> 25 µM	> 25 µM	> 25 µM	> 25 µM
COc1ccc(-c2nc(N)nc(-c3cc(C)ccc3O)c2Cl)cc1		> 100 µM		> 100 µM		> 100 µM		> 100 µM		> 100 µM		> 100 µM		> 100 µM		> 100 µM		> 100 µM		> 100 µM
COc1ccccc1OCC(COC(=O)Nc1ccc(C)cc1)OC(=O)Nc1ccc(C)cc1 (stereo not given)		28.1 µM		67.7 µM		46.2 µM		37.4 µM		63.7 µM		29 µM		> 100 µM		37.7 µM		> 100 µM		35.3 µM
C[C@H]1CC(=O)[C@@]2(O)C#C/C=C\C#C[C@@H]3Nc4c(cc(O)c5c4C(=O)c4ccccc4C5=O)[C@]24O[C@]314	0.0059 µM	0.306 µM and 0.337 µM		0.0252 µM	0.0025 µM	0.0645 µM and 0.0371 µM	0.0025 µM	0.00552 µM and 0.0052 µM	0.00359 µM	0.0592 µM and 0.101 µM		0.336 µM		0.217 µM	< 0.001 µM	0.0219 µM and 0.0281 µM		0.82 µM		0.0595 µM
CC(C)S(=O)(=O)n1c(N)nc2ccc(/C(=N/O)c3ccccc3)cc21		45.3 µM		57.8 µM		65.9 µM		44.3 µM		60.8 µM		41.1 µM		31.7 µM		49.6 µM		49.3 µM		53.2 µM
O=C(O)CCN1C(=O)/C(=C/C(Cl)=C/c2ccccc2)SC1=S	2.3 µM	6.32 µM	1.93 µM	4.76 µM	2.24 µM	8.32 µM	1.85 µM	7.64 µM	1.96 µM	4.63 µM	4.35 µM	12.5 µM	1.97 µM	3.62 µM	2.67 µM	7.12 µM	3.52 µM	15.1 µM	1.88 µM	3.38 µM
CC(C)=CCC[C@](C)(O)[C@H]1CC[C@]2(C)[C@@H]1CC[C@@H]1[C@@]3(C)CC[C@H](OC(=O)CCC(=O)O)C(C)(C)[C@@H]3CC[C@]12C	35.4 µM	> 100 µM	28.3 µM	> 100 µM	73.6 µM	> 100 µM	22.2 µM	53.1 µM	30.8 µM	> 100 µM	14.5 µM	35.9 µM	80.4 µM	> 100 µM	19.7 µM	57.8 µM	32.3 µM	> 100 µM	30.6 µM	> 100 µM
O=C(O)C(O)C(O)C1[O][Sb][O]C1CO (stereo not given)	> 100 µM	> 100 µM	> 100 µM	> 100 µM	> 100 µM	> 100 µM	> 53.1 µM	> 100 µM	> 100 µM	> 100 µM	> 100 µM	> 100 µM	> 100 µM	> 100 µM	> 100 µM	> 100 µM	> 100 µM	> 100 µM	> 100 µM	> 100 µM
COc1cc(C(=O)c2c(-c3ccccc3)oc3ccccc23)cc(OC)c1O	0.96 µM	26.9 µM	4.49 µM	41.1 µM	0.58 µM	10.7 µM	0.565 µM	3.85 µM	3.96 µM	22.6 µM	0.595 µM	12.7 µM	2.09 µM	5.76 µM	1.64 µM	5.63 µM	4.41 µM	> 100 µM	5.2 µM	20.4 µM
